# Measurements reported in PubChem BioAssay (NCI).
#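 Protocol summary: plate cells (96-well), add compound at 5 concentrations, incubate 48 h, interpolate endpoints linearly. GI50 is the concentration that inhibits growth by half. The concentration for full growth arrest is given as TGI.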
# Assays:
# Assay in all cases: DTP human tumour cell line panel, 48 h
# SF-539 CNS = test system: SF-539 CNS
# KM12 colon = test system: KM12 colon
# BT-549 breast = test system: BT-549 breast
# NCI-H522 lung = test system: NCI-H522 lung
# M14 melanoma = test system: M14 melanoma
# HCT-15 colon = test system: HCT-15 colon
# LOX IMVI melanoma = test system: LOX IMVI melanoma
# MDA-MB-231 breast = test system: MDA-MB-231 breast
# SW-620 colon = test system: SW-620 colon
# MALME-3M melanoma = test system: MALME-3M melanoma
SMILES,GI50 (SF-539 CNS),TGI (SF-539 CNS),GI50 (KM12 colon),TGI (KM12 colon),TGI (BT-549 breast),GI50 (NCI-H522 lung),TGI (NCI-H522 lung),GI50 (M14 melanoma),TGI (M14 melanoma),GI50 (HCT-15 colon),TGI (HCT-15 colon),GI50 (LOX IMVI melanoma),TGI (LOX IMVI melanoma),GI50 (MDA-MB-231 breast),TGI (MDA-MB-231 breast),GI50 (SW-620 colon),TGI (SW-620 colon),TGI (MALME-3M melanoma),GI50 (MALME-3M melanoma),GI50 (BT-549 breast)
O=C(Nc1ccc2[nH]nc(-c3ccncc3)c2c1)[C@@H]1CCN(CC(=O)N2CCN(c3ccc(-c4ncccn4)cc3)CC2)C1,5.1 µM,31.3 µM,0.431 µM,> 100 µM,> 100 µM,7.27 µM,> 100 µM,0.0282 µM,0.289 µM,7.79 µM,> 100 µM,0.0539 µM,> 100 µM,0.0528 µM,> 100 µM,0.101 µM,> 100 µM,,,
COc1ccc(C(c2cc(OC)c(OC)c(OC)c2)n2ccnc2)cc1O (configuration not stated),0.217 µM,0.552 µM,0.389 µM,> 100 µM,,0.247 µM,0.76 µM,0.18 µM,0.646 µM,0.464 µM,> 100 µM,0.525 µM,> 100 µM,0.664 µM,> 100 µM,0.387 µM,> 100 µM,,,
COC(=O)C1CCc2c1c(=O)n1c([nH]c3ccccc31)c2C#N (configuration not stated),,> 100 µM,,> 100 µM,,,> 100 µM,,> 100 µM,,> 100 µM,,> 100 µM,,,,> 100 µM,> 100 µM,,
Cn1cc(C(=O)c2ccccc2)c2ccccc2c1=O,,> 100 µM,,> 100 µM,,,> 100 µM,,> 100 µM,,> 100 µM,,> 100 µM,,,,> 100 µM,> 100 µM,,
CN(C)C=Nc1ccn(CCO)c(=O)n1,,> 100 µM,,> 100 µM,,,> 100 µM,,> 100 µM,,> 100 µM,,> 100 µM,,,,> 100 µM,> 100 µM,,
O=C(Oc1cccc2cccnc12)c1cc2c(cc1Cl)SC(N(c1ccc(F)cc1)S(=O)(=O)c1ccc(Br)s1)=NS2(=O)=O,23.4 µM,75.2 µM,44.2 µM,> 100 µM,,19.6 µM,48.3 µM,23.9 µM,> 100 µM,25.9 µM,> 100 µM,15.8 µM,64.2 µM,23.6 µM,> 100 µM,25.3 µM,> 100 µM,49.6 µM,18.8 µM,
O=C1NC(Cc2ccc(O)cc2)C(=O)N2CCCC12 (configuration not stated),,> 100 µM,,> 100 µM,,,> 100 µM,,> 100 µM,,> 100 µM,,> 100 µM,,,,> 100 µM,> 100 µM,,
O=C(NCCCCCCCCCCCCNC(=O)c1cccc2ccccc12)c1cccc2ccccc12,,4.73 µM,,> 100 µM,,,> 100 µM,,> 100 µM,,> 100 µM,,> 100 µM,,,,> 100 µM,> 100 µM,,
CC(=O)OCC1OC(n2cc(F)c(=O)[nH]c2=O)C(NC(=O)N(CCCl)N=O)C(OC(C)=O)C1OC(C)=O (configuration not stated),,> 100 µM,,> 100 µM,,,> 100 µM,,> 100 µM,,,,> 100 µM,,,,> 100 µM,> 100 µM,,
CCC(C)CCOC(=O)c1ccc(N=Cc2ccc(C=Nc3ccc(C(=O)OCCC(C)CC)cc3)cc2)cc1 (configuration not stated),,> 100 µM,,,,,> 100 µM,,> 100 µM,,> 100 µM,,> 100 µM,,,,> 100 µM,> 100 µM,,
Cc1cc2nc3c4cc(O)ccc4n(CCN(C)C)c3nc2cc1C,0.519 µM,2.09 µM,1.38 µM,7.8 µM,6.27 µM,0.541 µM,3.32 µM,0.523 µM,1.91 µM,0.611 µM,4.1 µM,,,0.898 µM,5.71 µM,0.404 µM,1.8 µM,2.41 µM,1.14 µM,2.03 µM
CC1=Nc2ccccc2S/C1=C(/C)NNS(=O)(=O)c1ccc(C)cc1,,> 100 µM,,> 100 µM,,,> 100 µM,,> 100 µM,,> 100 µM,,> 100 µM,,,,> 100 µM,> 100 µM,,
Cn1c2c(c3ccccc31)CCN(CCCCN1CCCCC1)C2=O,,> 100 µM,,,,,> 100 µM,,> 100 µM,,> 100 µM,,,,,,> 100 µM,,,
CCOC(=O)C1Cc2c(cc3c4c(cccc24)N(C(C)=O)C3)N(C)C1 (configuration not stated),,10.1 µM,,> 100 µM,,,1.3 µM,,> 100 µM,,> 100 µM,,> 100 µM,,5.71 µM,,> 100 µM,> 100 µM,,
COC(=O)CCC(NC(=S)N/N=C(\C)c1cnc2ccccc2n1)C(=O)OC (configuration not stated),,> 100 µM,,80.4 µM,,,38.2 µM,,> 100 µM,,> 100 µM,,66.3 µM,,,,> 100 µM,> 100 µM,,
CN1c2ccccc2N(C(=O)c2ccc([N+](=O)[O-])cc2)C(CC(=O)O)c2cccn21 (configuration not stated),,> 100 µM,,> 100 µM,,,> 100 µM,,> 100 µM,,> 100 µM,,> 100 µM,,,,> 100 µM,> 100 µM,,
C=C1CC[C@@H]2[C@](C)(COC(C)=O)[C@H](OC(C)=O)CC[C@@]2(C)[C@@H]1CC(Nc1ccc(S(=O)(=O)NC(C)=O)cc1)C1=CCOC1=O (some centres not stated),2.39 µM,7.77 µM,5.11 µM,15.9 µM,7.93 µM,1.44 µM,4.42 µM,2.86 µM,11.9 µM,1.53 µM,4.36 µM,1.25 µM,2.42 µM,3.32 µM,11.6 µM,1.61 µM,3.58 µM,,,2.32 µM
C[C@@H](NC1CCCC[C@H]1O)c1ccccc1 (some centres not stated),,> 100 µM,,> 100 µM,,,> 100 µM,,> 100 µM,,> 100 µM,,> 100 µM,,,,> 100 µM,> 100 µM,,
O=C1CSCc2sccc21,,> 100 µM,,> 100 µM,> 100 µM,,> 100 µM,,> 100 µM,,> 100 µM,,,,> 100 µM,,> 100 µM,,,
Nc1ncnc2c1ncn2[C@]1(CO)C=C(CO)C(O)C1O (some centres not stated),,,,> 100 µM,,,> 100 µM,,> 100 µM,,> 100 µM,,> 100 µM,,,,> 100 µM,> 100 µM,,
